Publication PMC10485906, “Development of a Dihydroquinoline–Pyrazoline GluN2C/2D-Selective Negative Allosteric Modulator of the N-Methyl-D-aspartate Receptor” (ACS Chemical Neuroscience, 2023)
Where “and” joins values, the source holds several entries; their conditions need not be identical. Equal values may be shown once. Entries after “also recorded” stand apart in the source; their conditions may differ. Read-outs that look alike come from different tables or passages of the source. One block for each compound: values may come before it.

Experiments:
MDCK-MDR1 = test system: MDCK-MDR1; design: method as in PMID 23909910; conditions: cited from earlier work
[1] = Mouse plasma and brain pharmacokinetics, IV administration; assay type: in vivo; conditions: 5 mg/kg IV; for concentration at 0.25 h / concentration at 1 h / concentration at 3 h: male, C57BL/6, mouse, intravenous, 5 mg/kg
Procedure: IACUC-approved protocols and animal welfare regulations outlined in the “Guide for the Care and Use of Laboratory Animals” were both followed during the pharmacokinetic evaluation of all compounds. In vivo analysis was performed by Pharmaron (IP administration, Irvine, CA) and Sai Life (IV administration, Hinjewadi Pune, Pune, India).
Nine male C57BL/6 mice were administered intravenously (IV) with solution formulation of prodrug at 5 mg/kg dose (5 mL/kg) in 5% […], 5% Solutol HS-15, and 90% saline. Blood samples (∼60 μL) were collected under light isoflurane anesthesia from a set of three mice at 0.25, 1, and 3 h. Plasma was harvested by centrifugation of blood and stored at −70 ± 10 °C until analysis. Immediately after the collection of blood, brain samples were collected from each mouse at respective time points. Brain samples were homogenized using ice-cold phosphate-buffered saline (pH 7.4), and homogenates were stored below −70 ± 10 °C until analysis. The total homogenate volume was 3 times that of the brain weight. The plasma and brain concentration–time data of compounds 2i were used for the pharmacokinetic analysis. Plasma and brain samples were quantified by the fit-for-purpose LC-MS/MS method (LLOQ: 2.06 ng/mL for plasma and 5.16 ng/mL for brain).

GluN1-4a/GluN3B = GluN1-4a/GluN3B (Rattus norvegicus, UniProt P35439+Q8VHN2); experiment: Off-target, oocytes, GluN1-4a/GluN3B; assay type: cell-based; conditions: 1 µM compound; 100 µM glycine
Procedure: (§1) Analysis of Off-target Actions
(§2) Compound (S)-(-)-2i was tested at 1 µM for actions at glycine-activated GluN1/GluN3A (human GluN1-F484A,T518L/GluN3A referred to a GluN1-FA,TL/GluN3A) and rat GluN1-4a/GluN3B in the presence of 0.5 µM CGP-78608. cRNA injection ratios for GluN1/GluN3 were 1:2. Compound (S)-(-)- 2i was also tested for actions at AMPA (rat GluA1, rat GluA2, human GluA3-L531Y), kainate (rat GluK2), nicotinic acetylcholine (rat α7 and α4β2, cRNA ratio 1:1), GABAA (rat α1β2γ2S, cRNA ratio 1:1:1), GABAC (rat ρ1), glycine (rat α1), and purinergic (human P2X) receptors expressed in Xenopus oocytes. cRNA encoding the receptor subunits was synthesized from linear template cDNA using the mMessage mMachine kit (Ambion). Oocytes were injected with 1-5 ng cRNA in a 50 nL volume and incubated in Barth's solution at 15°C for 2-5 days prior to recording. GluK2-expressing oocyte were incubated in 1 mg/ml (10 µM) concanavalin-A for 10 min prior to recording. The cDNAs encoding GABAC and glycine subunits were provided by Dr. D. Weiss (University of Texas Health Science Center at San Antonio). cDNAs encoding nicotinic acetylcholine receptor subunits were provided by Drs. […]
(§3) GABA. […] Responses in presence of test compound were expressed as a percent of control. […]

GluK2 = molecular target: T1, GluK2 (Rattus norvegicus, UniProt P42260); experiment: Off-target, oocytes, GluK2; assay type: cell-based; conditions: 1 µM compound; 100 µM glutamate
T1 construct: expressed in transfected cells; host or cells: Xenopus oocytes (cRNA injection)
Procedure: as §1, §2, §3

α7-nACh = α7-nACh (Rattus norvegicus, UniProt Q05941); experiment: Off-target, oocytes, nicotinic acetylcholine α7; assay type: cell-based; conditions: 1 µM compound; 300 µM acetylcholine
Procedure: as §1, §2, §3

1b22-GABA = molecular target: T2, 1b22-GABA (Rattus norvegicus, UniProt P18508+P62813+P63138); experiment: Off-target, oocytes, GABAA; assay type: cell-based; conditions: 1 µM compound; 100 µM GABA
T2 construct: expressed in transfected cells; host or cells: Xenopus oocytes (cRNA injection, 1:1:1)
Procedure: as §1, §2, §3

α1-Glycine = molecular target: T3, α1-Glycine (Rattus norvegicus, UniProt P07727); experiment: Off-target, oocytes, glycine receptor; assay type: cell-based; conditions: 1 µM compound; 100 µM glycine
T3 construct: expressed in transfected cells; host or cells: Xenopus oocytes (cRNA injection)
Procedure: as §1, §2, §3

[2] = test system: AMPA, kainate, GluN1/GluN3, GABA, glycine, nicotinic, purinergic P2X receptors; experiment: Off-target actions, summary in words; assay type: cell-based; conditions: 1 μM
Procedure: By contrast, the other enantiomer (R)-(+)-2i had lower potency and produced shallow, incomplete inhibition (Figure S11).
as §1, §2, §3

T2 sequence (P62813 28-455): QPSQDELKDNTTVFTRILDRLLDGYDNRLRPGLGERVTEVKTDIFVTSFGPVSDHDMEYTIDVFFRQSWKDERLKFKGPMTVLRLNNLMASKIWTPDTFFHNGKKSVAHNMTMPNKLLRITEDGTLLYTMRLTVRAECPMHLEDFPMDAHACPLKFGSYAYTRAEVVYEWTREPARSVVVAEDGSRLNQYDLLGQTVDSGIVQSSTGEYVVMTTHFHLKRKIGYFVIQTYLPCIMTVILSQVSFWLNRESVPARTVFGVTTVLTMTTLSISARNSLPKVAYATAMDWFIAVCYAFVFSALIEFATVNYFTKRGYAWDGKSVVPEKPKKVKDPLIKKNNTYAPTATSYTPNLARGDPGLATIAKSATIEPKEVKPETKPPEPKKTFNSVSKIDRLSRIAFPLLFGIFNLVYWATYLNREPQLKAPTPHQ
T2 sequence (P63138 25-474 limits assumed): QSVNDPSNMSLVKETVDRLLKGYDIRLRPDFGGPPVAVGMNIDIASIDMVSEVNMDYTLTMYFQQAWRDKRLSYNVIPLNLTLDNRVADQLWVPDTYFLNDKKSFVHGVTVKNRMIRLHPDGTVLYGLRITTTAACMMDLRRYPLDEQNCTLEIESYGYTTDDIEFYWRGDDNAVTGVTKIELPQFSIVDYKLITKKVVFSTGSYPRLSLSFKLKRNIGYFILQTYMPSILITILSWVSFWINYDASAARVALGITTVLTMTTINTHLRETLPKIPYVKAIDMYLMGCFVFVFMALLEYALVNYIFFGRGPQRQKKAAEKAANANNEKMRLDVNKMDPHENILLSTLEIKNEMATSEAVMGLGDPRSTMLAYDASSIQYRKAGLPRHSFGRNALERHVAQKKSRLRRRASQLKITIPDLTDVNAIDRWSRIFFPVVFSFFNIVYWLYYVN
T2 sequence (P18508 39-466): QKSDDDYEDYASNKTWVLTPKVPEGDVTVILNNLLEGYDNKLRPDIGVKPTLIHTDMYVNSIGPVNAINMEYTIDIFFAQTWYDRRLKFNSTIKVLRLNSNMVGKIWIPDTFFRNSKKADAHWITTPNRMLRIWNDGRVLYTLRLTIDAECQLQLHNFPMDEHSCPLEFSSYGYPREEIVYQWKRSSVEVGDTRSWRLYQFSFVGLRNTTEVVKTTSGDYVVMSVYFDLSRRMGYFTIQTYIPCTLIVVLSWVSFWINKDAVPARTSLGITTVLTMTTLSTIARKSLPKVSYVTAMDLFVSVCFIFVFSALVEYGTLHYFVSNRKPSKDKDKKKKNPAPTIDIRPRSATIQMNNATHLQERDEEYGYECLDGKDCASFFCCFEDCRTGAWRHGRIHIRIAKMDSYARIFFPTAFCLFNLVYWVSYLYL
T1 sequence (P42260 32-908): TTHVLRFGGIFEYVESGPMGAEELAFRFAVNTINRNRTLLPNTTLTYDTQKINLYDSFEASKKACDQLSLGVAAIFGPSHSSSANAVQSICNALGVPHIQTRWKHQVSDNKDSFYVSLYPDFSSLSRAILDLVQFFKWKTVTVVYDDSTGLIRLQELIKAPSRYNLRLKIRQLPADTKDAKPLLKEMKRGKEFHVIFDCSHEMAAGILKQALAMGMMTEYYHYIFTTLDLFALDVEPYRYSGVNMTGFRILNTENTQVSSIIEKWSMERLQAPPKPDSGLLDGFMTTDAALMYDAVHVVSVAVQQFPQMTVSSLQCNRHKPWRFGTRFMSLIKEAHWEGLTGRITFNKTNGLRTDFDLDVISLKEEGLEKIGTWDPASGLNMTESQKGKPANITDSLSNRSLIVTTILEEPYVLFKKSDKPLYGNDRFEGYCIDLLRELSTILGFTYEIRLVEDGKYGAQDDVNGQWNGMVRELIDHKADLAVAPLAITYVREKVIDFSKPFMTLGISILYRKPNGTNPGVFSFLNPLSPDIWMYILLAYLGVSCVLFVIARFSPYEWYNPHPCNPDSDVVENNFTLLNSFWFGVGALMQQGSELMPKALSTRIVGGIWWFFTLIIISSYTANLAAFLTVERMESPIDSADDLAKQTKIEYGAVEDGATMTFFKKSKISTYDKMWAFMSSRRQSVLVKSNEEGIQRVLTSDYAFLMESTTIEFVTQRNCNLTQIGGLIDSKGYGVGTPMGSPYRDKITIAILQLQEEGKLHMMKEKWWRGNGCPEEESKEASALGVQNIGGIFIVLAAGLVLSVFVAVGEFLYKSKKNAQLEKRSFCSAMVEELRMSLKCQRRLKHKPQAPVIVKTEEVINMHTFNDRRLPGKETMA
Chain of α7-nACh (Q05941 23-502): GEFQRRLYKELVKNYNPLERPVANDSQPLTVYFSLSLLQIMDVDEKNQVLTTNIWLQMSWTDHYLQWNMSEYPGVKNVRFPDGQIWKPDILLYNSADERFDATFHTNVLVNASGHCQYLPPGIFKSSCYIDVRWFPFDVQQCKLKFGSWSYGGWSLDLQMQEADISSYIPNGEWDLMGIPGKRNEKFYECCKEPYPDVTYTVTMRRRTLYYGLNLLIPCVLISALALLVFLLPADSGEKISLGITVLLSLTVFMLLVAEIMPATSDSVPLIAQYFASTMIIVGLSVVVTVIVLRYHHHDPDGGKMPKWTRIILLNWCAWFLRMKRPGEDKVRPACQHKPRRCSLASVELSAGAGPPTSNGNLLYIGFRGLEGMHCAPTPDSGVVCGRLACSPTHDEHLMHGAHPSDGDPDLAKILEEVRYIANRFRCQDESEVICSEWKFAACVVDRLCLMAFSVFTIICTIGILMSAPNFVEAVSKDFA
Chain of GluN1-4a/GluN3B (Q8VHN2 25-1002, other chains not shown): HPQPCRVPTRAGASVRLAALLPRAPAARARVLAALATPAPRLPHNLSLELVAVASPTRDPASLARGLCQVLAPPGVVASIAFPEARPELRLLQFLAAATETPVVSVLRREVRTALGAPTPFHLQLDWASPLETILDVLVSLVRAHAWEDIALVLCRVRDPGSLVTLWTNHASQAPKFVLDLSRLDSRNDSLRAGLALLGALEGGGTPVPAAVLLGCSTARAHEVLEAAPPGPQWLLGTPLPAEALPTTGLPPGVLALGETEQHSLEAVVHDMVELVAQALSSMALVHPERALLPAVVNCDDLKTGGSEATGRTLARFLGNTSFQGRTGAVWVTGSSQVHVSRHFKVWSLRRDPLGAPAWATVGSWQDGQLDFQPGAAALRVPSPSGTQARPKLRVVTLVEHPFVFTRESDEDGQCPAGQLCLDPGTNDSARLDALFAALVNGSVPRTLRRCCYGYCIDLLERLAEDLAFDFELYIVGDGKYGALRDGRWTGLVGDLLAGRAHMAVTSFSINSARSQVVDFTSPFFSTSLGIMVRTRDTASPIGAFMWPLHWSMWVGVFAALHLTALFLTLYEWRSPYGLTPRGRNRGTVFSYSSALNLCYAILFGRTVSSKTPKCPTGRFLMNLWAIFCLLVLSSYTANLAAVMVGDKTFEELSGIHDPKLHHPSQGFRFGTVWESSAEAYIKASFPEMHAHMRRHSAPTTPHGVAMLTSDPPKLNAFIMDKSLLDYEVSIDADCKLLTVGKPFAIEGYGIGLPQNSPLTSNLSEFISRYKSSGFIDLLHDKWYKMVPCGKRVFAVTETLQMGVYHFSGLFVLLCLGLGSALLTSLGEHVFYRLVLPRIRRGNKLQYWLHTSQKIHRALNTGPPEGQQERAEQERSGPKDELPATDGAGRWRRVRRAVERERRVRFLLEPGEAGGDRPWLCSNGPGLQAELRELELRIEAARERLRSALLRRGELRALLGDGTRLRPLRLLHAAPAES
T3 sequence (P07727 29-457): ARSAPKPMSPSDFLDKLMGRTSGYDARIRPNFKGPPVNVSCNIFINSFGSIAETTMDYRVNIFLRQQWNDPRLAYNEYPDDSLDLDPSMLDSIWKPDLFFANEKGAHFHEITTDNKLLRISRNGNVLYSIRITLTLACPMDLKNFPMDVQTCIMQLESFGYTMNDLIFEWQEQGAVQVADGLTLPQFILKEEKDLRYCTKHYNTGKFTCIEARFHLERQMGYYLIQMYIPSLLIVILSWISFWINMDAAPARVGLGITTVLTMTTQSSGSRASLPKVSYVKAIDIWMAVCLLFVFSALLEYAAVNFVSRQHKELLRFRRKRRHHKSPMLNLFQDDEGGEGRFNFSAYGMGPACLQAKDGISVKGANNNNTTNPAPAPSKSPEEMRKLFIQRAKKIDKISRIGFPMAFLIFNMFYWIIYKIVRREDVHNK

Structure (SMILES): O=C(O)CCC(=O)N1N=C(c2c(-c3ccc(Cl)cc3)c3ccccc3[nH]c2=O)CC1c1ccc(Cl)cc1 (centres unmarked) [2a]
Papp (MDCK-MDR1; cell-membrane permeability): 0.47 × 10^–6 cm/s
P-glycoprotein (P-gp)-mediated efflux ratio (ER) (MDCK-MDR1): 55

drop of plasma levels at 1 h [1]: ~10 fold
brain calculated concentration, individual (Group 1-3) ([1]; 0.25 h): 17.9 ng/g and 13.1 ng/g
brain calculated concentration, Mean ([1]; 0.25 h (15 min)): 14 ng/g
plasma concentration, individual (Group 1-3) ([1]; 0.25 hr): 585 ng/mL and 766 ng/mL
brain calculated concentration, individual (Group 1-3) ([1]; 1 h): BLQ and 6.18 ng/g
plasma concentration, individual (Group 1-3) ([1]; 1 hr): 41.2 ng/mL and 101 ng/mL and 68.7 ng/mL
brain calculated concentration, individual (Group 1-3) ([1]; 3 h): BLQ
brain levels at 3 h ([1]; 3 h): BLQ
plasma concentration, individual (Group 1-3) ([1]; 3 hr): 5.97 ng/mL and 10.2 ng/mL
concentration at 0.25 h ([1]; brain, 0.25 h (15 min), read-out: brain calculated concentration, Mean): 13.9 ng/g
concentration at 0.25 h ([1]; brain, 0.25 h, read-out: brain calculated concentration, individual (Group 1-3)): 10.8 ng/g
concentration at 1 h ([1]; brain, 1 h, BLQ assumed to be 0.0, read-out: brain calculated concentration, Mean): 4.13 ng/g
concentration at 1 h ([1]; brain, 1 h, read-out: brain calculated concentration, individual (Group 1-3)): 6.21 ng/g
concentration at 0.25 h ([1]; plasma, 0.25 hr (15 min), read-out: plasma concentration, Mean): 642 ng/mL
concentration at 0.25 h ([1]; plasma, 0.25 hr, read-out: plasma concentration, individual (Group 1-3)): 575 ng/mL
concentration at 1 h ([1]; plasma, 1 hr, read-out: plasma concentration, Mean): 70.4 ng/mL
concentration at 3 h ([1]; plasma, 3 hr, read-out: plasma concentration, Mean): 7.64 ng/mL
concentration at 3 h ([1]; plasma, 3 hr, read-out: plasma concentration, individual (Group 1-3)): 6.78 ng/mL
Structure (SMILES): O=C(O)CC(F)(F)C(=O)N1N=C(c2c(-c3ccc(Cl)cc3)c3ccccc3[nH]c2=O)CC1c1ccc(Cl)cc1 (centres unmarked) [2i]

% control GluN1-4a/GluN3B (GluN1-4a/GluN3B): 97 ± 1.0%
% control GluK2 (GluK2): 100 ± 1.0%
% control α7-nACh (α7-nACh): 105 ± 13.5%
% control 1b22-GABA (1b22-GABA): 85 ± 2.0%
% control α1-Glycine (α1-Glycine): 103 ± 2.4%
off-target actions [2]: no effects; also recorded: no activity
Structure (SMILES): O=C(O)CC(F)(F)C(=O)N1N=C(c2c(-c3ccc(Cl)cc3)c3ccccc3[nH]c2=O)C[C@H]1c1ccc(Cl)cc1 [(S)-(−)-2i]
